Assay results: PubChem BioAssay AID256 (DTP/NCI, 2004)
Where “and” joins values, the source holds several entries; their conditions need not be identical. Identical values can stand only once. Toxic doses and inconclusive results are not listed.

Test system: CD2F1 mice, L1210 leukemia ip, survival T/C
Assay: NCI In Vivo Anticancer Drug Screen. Data for tumor model L1210 Leukemia (intraperitoneal) in CD2F1 (CDF1) mice
Conditions: higher = longer survival
Procedure, shortened: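 Mice carrying a transplanted tumor received test compound or vehicle alone. The value is the measurement in the treated group divided by that in the vehicle-treated control group.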

Cc1cc(NCCCCCCNc2cc(C)nc3ccc(N)cc23)c2cc(N)ccc2n1
T/C (endpoint: mean survival time, dose: 0.16 mg/kg/injection, schedule: Q08HX006 (iv), vehicle: water): 103 % of control
T/C (endpoint: mean survival time, dose: 0.31 mg/kg/injection, schedule: Q08HX006 (iv), vehicle: water): 104 % of control
T/C (endpoint: mean survival time, dose: 0.4 mg/kg/injection, schedule: Q08HX009 (ip), vehicle: water): 105 % of control
T/C (endpoint: mean survival time, dose: 0.6 mg/kg/injection, schedule: Q01DX009 (ip), vehicle: water): 98 % of control
T/C (endpoint: mean survival time, dose: 0.6 mg/kg/injection, schedule: Q08HX009 (iv), vehicle: water): 88 % of control
T/C (endpoint: mean survival time, dose: 0.63 mg/kg/injection, schedule: Q08HX006 (iv), vehicle: water): 92 % of control
T/C (endpoint: mean survival time, dose: 0.8 mg/kg/injection, schedule: Q08HX009 (ip), vehicle: water): 101 % of control
T/C (endpoint: mean survival time, dose: 1.1 mg/kg/injection, schedule: Q01DX005 (iv), vehicle: water): 104 % of control
T/C (endpoint: mean survival time, dose: 1.2 mg/kg/injection, schedule: Q01DX009 (ip), vehicle: water): 97 % of control
T/C (endpoint: mean survival time, dose: 1.25 mg/kg/injection, schedule: Q08HX006 (iv), vehicle: water): 103 % of control
T/C (endpoint: mean survival time, dose: 1.3 mg/kg/injection, schedule: Q08HX009 (iv), vehicle: water): 94 % of control
T/C (endpoint: mean survival time, dose: 1.4 mg/kg/injection, schedule: Q01DX005 (iv), vehicle: water): 98 % of control
T/C (endpoint: mean survival time, dose: 1.56 mg/kg/injection, schedule: Q01DX009 (ip), vehicle: water): 103 % of control and 111 % of control
T/C (endpoint: mean survival time, dose: 1.6 mg/kg/injection, schedule: Q08HX009 (ip), vehicle: water): 104 % of control
T/C (endpoint: mean survival time, dose: 1.9 mg/kg/injection, schedule: Q01DX005 (iv), vehicle: water): 101 % of control
T/C (endpoint: mean survival time, dose: 1.9 mg/kg/injection, schedule: Q08HX009 (iv), vehicle: saline with Tween-80): 92 % of control
T/C (endpoint: mean survival time, dose: 2.4 mg/kg/injection, schedule: Q01DX009 (ip), vehicle: saline with Tween-80): 114 % of control and 116 % of control
T/C (endpoint: mean survival time, dose: 2.4 mg/kg/injection, schedule: Q01DX009 (ip), vehicle: water): 111 % of control
T/C (endpoint: mean survival time, dose: 2.5 mg/kg/injection, schedule: Q01DX005 (iv), vehicle: water): 103 % of control
T/C (endpoint: mean survival time, dose: 2.5 mg/kg/injection, schedule: Q08HX006 (iv), vehicle: water): 105 % of control
T/C (endpoint: mean survival time, dose: 2.5 mg/kg/injection, schedule: Q08HX009 (ip), vehicle: saline with Tween-80): 119 % of control
T/C (endpoint: mean survival time, dose: 2.5 mg/kg/injection, schedule: Q08HX009 (iv), vehicle: water): 93 % of control
T/C (endpoint: mean survival time, dose: 2.53 mg/kg/injection, schedule: Q01DX005 (iv), vehicle: water): 95 % of control
T/C (endpoint: mean survival time, dose: 2.58 mg/kg/injection, schedule: Q01DX005 (iv), vehicle: saline with Tween-80): 101 % of control
T/C (endpoint: mean survival time, dose: 3.0 mg/kg/injection, schedule: Q01DX009 (ip), vehicle: water): 95 % of control and 107 % of control
T/C (endpoint: mean survival time, dose: 3.13 mg/kg/injection, schedule: Q01DX009 (ip), vehicle: water): 113 % of control and 124 % of control
T/C (endpoint: mean survival time, dose: 3.2 mg/kg/injection, schedule: Q08HX009 (ip), vehicle: water): 112 % of control
T/C (endpoint: mean survival time, dose: 3.38 mg/kg/injection, schedule: Q01DX005 (iv), vehicle: water): 100 % of control
T/C (endpoint: mean survival time, dose: 3.38 mg/kg/injection, schedule: Q01DX009 (sc), vehicle: water): 98 % of control
T/C (endpoint: mean survival time, dose: 3.4 mg/kg/injection, schedule: Q01DX005 (iv), vehicle: water): 101 % of control
T/C (endpoint: mean survival time, dose: 3.44 mg/kg/injection, schedule: Q01DX009 (ip), vehicle: saline with Tween-80): 114 % of control
T/C (endpoint: mean survival time, dose: 3.44 mg/kg/injection, schedule: Q01DX009 (sc), vehicle: saline with Tween-80): 100 % of control
T/C (endpoint: mean survival time, dose: 3.7 mg/kg/injection, schedule: Q01DX009 (ip), vehicle: saline with Tween-80): 117 % of control
T/C (endpoint: mean survival time, dose: 3.8 mg/kg/injection, schedule: Q08HX006 (iv), vehicle: saline with Tween-80): 101 % of control
T/C (endpoint: mean survival time, dose: 3.8 mg/kg/injection, schedule: Q08HX009 (iv), vehicle: saline with Tween-80): 88 % of control
T/C (endpoint: mean survival time, dose: 4.51 mg/kg/injection, schedule: Q01DX009 (ip), vehicle: water): 113 % of control
T/C (endpoint: mean survival time, dose: 4.59 mg/kg/injection, schedule: Q01DX009 (ip), vehicle: saline with Tween-80): 115 % of control
T/C (endpoint: mean survival time, dose: 4.59 mg/kg/injection, schedule: Q01DX009 (sc), vehicle: saline with Tween-80): 96 % of control
T/C (endpoint: mean survival time, dose: 4.7 mg/kg/injection, schedule: Q01DX009 (ip), vehicle: saline with Tween-80): 121 % of control
T/C (endpoint: mean survival time, dose: 4.8 mg/kg/injection, schedule: Q01DX009 (ip), vehicle: water): 114 % of control
T/C (endpoint: mean survival time, dose: 5.0 mg/kg/injection, schedule: Q08HX006 (iv), vehicle: water): 100 % of control
T/C (endpoint: mean survival time, dose: 5.3 mg/kg/injection, schedule: Q01DX009 (ip), vehicle: water): 114 % of control and 97 % of control
T/C (endpoint: mean survival time, dose: 6.12 mg/kg/injection, schedule: Q01DX005 (iv), vehicle: saline with Tween-80): 97 % of control
T/C (endpoint: mean survival time, dose: 6.12 mg/kg/injection, schedule: Q01DX009 (ip), vehicle: saline with Tween-80): 119 % of control
T/C (endpoint: mean survival time, dose: 6.12 mg/kg/injection, schedule: Q01DX009 (sc), vehicle: saline with Tween-80): 97 % of control
T/C (endpoint: mean survival time, dose: 6.25 mg/kg/injection, schedule: Q01DX009 (ip), vehicle: water): 122 % of control
T/C (endpoint: mean survival time, dose: 6.4 mg/kg/injection, schedule: Q08HX009 (ip), vehicle: water): 121 % of control
T/C (endpoint: mean survival time, dose: 7.2 mg/kg/injection, schedule: Q01DX009 (ip), vehicle: saline with Tween-80): 115 % of control
T/C (endpoint: mean survival time, dose: 7.4 mg/kg/injection, schedule: Q01DX009 (ip), vehicle: saline with Tween-80): 120 % of control
T/C (endpoint: mean survival time, dose: 7.6 mg/kg/injection, schedule: Q08HX006 (iv), vehicle: saline with Tween-80): 101 % of control
T/C (endpoint: mean survival time, dose: 7.6 mg/kg/injection, schedule: Q08HX009 (iv), vehicle: saline with Tween-80): 89 % of control
T/C (endpoint: mean survival time, dose: 8.2 mg/kg/injection, schedule: Q01DX009 (sc), vehicle: saline with Tween-80): 98 % of control
T/C (endpoint: mean survival time, dose: 9.0 mg/kg/injection, schedule: Q01DX009 (ip), vehicle: saline): 121 % of control
T/C (endpoint: mean survival time, dose: 9.4 mg/kg/injection, schedule: Q01DX009 (ip), vehicle: water): 118 % of control
T/C (endpoint: mean survival time, dose: 10.9 mg/kg/injection, schedule: Q01DX009 (sc), vehicle: saline with Tween-80): 98 % of control
T/C (endpoint: mean survival time, dose: 12.8 mg/kg/injection, schedule: Q01DX009 (ip), vehicle: saline with Tween-80): 115 % of control
T/C (endpoint: mean survival time, dose: 14.5 mg/kg/injection, schedule: Q01DX009 (ip), vehicle: saline with Tween-80): 156 % of control
T/C (endpoint: mean survival time, dose: 15.3 mg/kg/injection, schedule: Q08HX009 (iv), vehicle: saline with Tween-80): 89 % of control
T/C (endpoint: mean survival time, dose: 19.0 mg/kg/injection, schedule: Q01DX009 (sc), vehicle: water): 113 % of control
T/C (endpoint: mean survival time, dose: 19.4 mg/kg/injection, schedule: Q01DX005 (iv), vehicle: saline with Tween-80): 118 % of control and 119 % of control
T/C (endpoint: mean survival time, dose: 19.4 mg/kg/injection, schedule: Q01DX009 (ip), vehicle: saline with Tween-80): 165 % of control
T/C (endpoint: mean survival time, dose: 19.4 mg/kg/injection, schedule: Q01DX009 (sc), vehicle: saline with Tween-80): 115 % of control
T/C (endpoint: mean survival time, dose: 19.6 mg/kg/injection, schedule: Q08HX009 (ip), vehicle: saline with Tween-80): 151 % of control
T/C (endpoint: mean survival time, dose: 22.7 mg/kg/injection, schedule: Q01DX009 (ip), vehicle: saline with Tween-80): 118 % of control
T/C (endpoint: mean survival time, dose: 25.0 mg/kg/injection, schedule: Q01DX009 (ip), vehicle: water): 109 % of control
T/C (endpoint: mean survival time, dose: 25.3 mg/kg/injection, schedule: Q01DX009 (ip), vehicle: water): 160 % of control
T/C (endpoint: mean survival time, dose: 25.3 mg/kg/injection, schedule: Q01DX009 (sc), vehicle: water): 115 % of control
T/C (endpoint: mean survival time, dose: 25.8 mg/kg/injection, schedule: Q01DX005 (iv), vehicle: saline with Tween-80): 117 % of control and 120 % of control
T/C (endpoint: mean survival time, dose: 25.8 mg/kg/injection, schedule: Q01DX009 (ip), vehicle: saline with Tween-80): 166 % of control
T/C (endpoint: mean survival time, dose: 25.8 mg/kg/injection, schedule: Q01DX009 (sc), vehicle: saline with Tween-80): 123 % of control
T/C (endpoint: mean survival time, dose: 29.4 mg/kg/injection, schedule: Q01DX009 (ip), vehicle: saline with Tween-80): 171 % of control
T/C (endpoint: mean survival time, dose: 30.6 mg/kg/injection, schedule: Q08HX009 (iv), vehicle: saline with Tween-80): 95 % of control
T/C (endpoint: mean survival time, dose: 33.8 mg/kg/injection, schedule: Q01DX009 (sc), vehicle: water): 124 % of control
T/C (endpoint: mean survival time, dose: 34.4 mg/kg/injection, schedule: Q01DX005 (iv), vehicle: saline with Tween-80): 116 % of control and 123 % of control
T/C (endpoint: mean survival time, dose: 34.4 mg/kg/injection, schedule: Q01DX009 (ip), vehicle: saline with Tween-80): 167 % of control
T/C (endpoint: mean survival time, dose: 34.4 mg/kg/injection, schedule: Q01DX009 (sc), vehicle: saline with Tween-80): 124 % of control
T/C (endpoint: mean survival time, dose: 39.2 mg/kg/injection, schedule: Q08HX009 (ip), vehicle: saline with Tween-80): 165 % of control
T/C (endpoint: mean survival time, dose: 40.4 mg/kg/injection, schedule: Q01DX009 (ip), vehicle: saline with Tween-80): 123 % of control
T/C (endpoint: mean survival time, dose: 45.9 mg/kg/injection, schedule: Q01DX009 (ip), vehicle: saline with Tween-80): 171 % of control
T/C (endpoint: mean survival time, dose: 58.8 mg/kg/injection, schedule: Q01DX009 (ip), vehicle: saline with Tween-80): 185 % of control
T/C (endpoint: mean survival time, dose: 71.8 mg/kg/injection, schedule: Q01DX009 (ip), vehicle: saline with Tween-80): 157 % of control
T/C (endpoint: mean survival time, dose: 78.4 mg/kg/injection, schedule: Q08HX009 (ip), vehicle: saline with Tween-80): 180 % of control
T/C (endpoint: mean survival time, dose: 117.6 mg/kg/injection, schedule: Q01DX009 (ip), vehicle: saline with Tween-80): 98 % of control
T/C (endpoint: mean survival time, dose: 127.8 mg/kg/injection, schedule: Q01DX009 (ip), vehicle: saline with Tween-80): 151 % of control
T/C (endpoint: mean survival time, dose: 150.0 mg/kg/injection, schedule: Q01DX009 (ip), vehicle: saline with Tween-80): 168 % of control and 174 % of control
T/C (endpoint: mean survival time, dose: 300.0 mg/kg/injection, schedule: Q01DX009 (ip), vehicle: saline with Tween-80): 120 % of control
T/C (endpoint: median survival time, dose: 0.78 mg/kg/injection, schedule: Q01DX009 (ip), vehicle: water): 98 % of control
T/C (endpoint: median survival time, dose: 1.56 mg/kg/injection, schedule: Q01DX009 (ip), vehicle: water): 93 % of control
T/C (endpoint: median survival time, dose: 3.12 mg/kg/injection, schedule: Q01DX009 (ip), vehicle: water): 98 % of control
T/C (endpoint: median survival time, dose: 6.25 mg/kg/injection, schedule: Q01DX009 (ip), vehicle: water): 109 % of control
T/C (endpoint: median survival time, dose: 12.5 mg/kg/injection, schedule: Q01DX009 (ip), vehicle: water): 117 % of control
